Source: patent US4020111A, “Propynyloxy alkyl arene insecticides” (priority 1975, dated 1977)

Columns and labels:
[1] = test system: mice; test: synergism of acute toxicity of Dimetilan, GS 13005, Secobarbital and Methadone (intraperitoneal); assay type: in vivo, Swiss albino white male mice; conditions: 48 hours, of eight mice
How it was run: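 Male Swiss albino mice (5–6 weeks, 23–27 g), eight per dose; synergist in corn oil given i.p. 1 h before i.p. insecticide or drug (drugs in distilled water). Lethality recorded over at least 6 h; controls received corn oil plus agent alone.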

[2] = test system: mice; test: extension of Noludar sleeping time by synergists; assay type: in vivo, Swiss albino white male mice; conditions: Noludar 110 mg/K, synergist 110 mg/K
How it was run: (§1)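 Swiss albino male mice (~38 days, 25-30 g) given synergist at 74.0 or 110.0 mg/kg in corn oil 1 h before Secobarbital 37.0 mg/kg or Noludar 110.0 mg/kg in water. Sleeping time measured from drug dosing to righting-reflex recovery; relative sleeping time = treated ÷ drug-only control.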

[3] = test system: houseflies; test: percent kill with Diazinon, Table XXVII (strain not given); assay type: in vivo, housefly; conditions: Diazinon 5 + synergist 10 μg/fly, 1440 min
[4] = test system: CH strain flies; test: spray application of pyrethrum, average percent knockdown with time; assay type: in vivo, housefly (CH strain); conditions: pyrethrum 100 + synergist 100 mg/cc
Method: The average percent knockdown of CH strain flies, as a function of time, resulting from spray application of pyrethrum, alone and with synergists, are given in Table XXXXIII. Duplicate tests were performed using 50 CH strain houseflies per test. Test solutions of 100 mg and 200mg of pyrethrum per cc of acetone, 200 mg of synergist per cc of acetone, and a mixture of 100 mg of pyrethrum and 100 mg of synergist per cc of acetone were prepared. The fifty CH strain houseflies were put in a 40 liter spray chamber and 1 cc of the test solution was sprayed into the test chamber with a spray pistol. The synergists alone at 200 mg/cc caused no knockdown.

[5] = test system: mice; test: extension of Secobarbital sleeping time by synergists; assay type: in vivo, Swiss albino white male mice; conditions: Secobarbital 37 mg/K; for Relative Sleeping Time: treated/control
How it was run: as §1

[6] = test system: polyvalent resistant (CH strain) houseflies; test: whole plant or invertebrate; assay type: in vivo, housefly (CH strain); conditions: CH strain

## C#CCON=Cc1cccc2ccccc12 [I-I]
[1]; Dimetilan 8 mg/kg + synergist 80 mg/kg ip
  number of mice dead: 0
[1]; Dimetilan 8 mg/kg + synergist 240 mg/kg ip
  number of mice dead: 3
[2]
  Mean Sleeping Time: 62 min
[2]; treated/control
  Relative Sleeping Time: 2.1
[3]
  percent kill: 55%
[4]; 5 min
  average percent knockdown: 4%
[4]; 10 min
  average percent knockdown: 7%
[4]; 15 min
  average percent knockdown: 19%
[4]; 20 min
  average percent knockdown: 29%
[4]; 25 min
  average percent knockdown: 40%
[4]; 30 min
  average percent knockdown: 49%
[4]; 40 min
  average percent knockdown: 57%
[4]; 50 min
  average percent knockdown: 86%
[4]; 60 min
  average percent knockdown: 92%
[5]; synergist 74 mg/K
  Mean Sleeping Time: 31 min
  Relative Sleeping Time: 1.1
[5]; synergist 110 mg/K
  Mean Sleeping Time: 102 min
  Relative Sleeping Time: 1.7
[6]; GS 13005 1 + synergist 2 μg/fly
  percent kill after 24 hours: 47%
[6]; Pyrethrum 2 + synergist 4 μg/fly
  percent kill after 24 hours: 52%
